What all share (assay type): cell-based
Assay [1] addresses T1, Adenosine 2a receptor (Homo sapiens, UniProt P29274).
T1 construct: expressed in transfected cells; host or cells: Chinese hamster ovary (CHO) cells, co-transfected with a CRE-SPAP reporter
Put plainly: Agonist activity against adenosine 2a receptor subtype (CHO cells, cAMP response element/SPAP reporter). Particulars: EC50 ratio to NECA; transfected CHO cells, basal cAMP reflected by SPAP. In a few lines: (§1)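 CHO cells expressed the human receptor plus a cAMP response element–driven SPAP reporter. Agonism was measured as SPAP change from forskolin-enhanced cAMP for A1 and A3, and from basal cAMP for A2a. EC50 is expressed as a ratio to that of NECA.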

In assay [2] the target is T2, Adenosine 3 receptor (Homo sapiens, UniProt P0DMS8).
T2 construct: expressed in transfected cells; host or cells: Chinese hamster ovary (CHO) cells, co-transfected with a CRE-SPAP reporter
T2 sequence (P0DMS8 1-318): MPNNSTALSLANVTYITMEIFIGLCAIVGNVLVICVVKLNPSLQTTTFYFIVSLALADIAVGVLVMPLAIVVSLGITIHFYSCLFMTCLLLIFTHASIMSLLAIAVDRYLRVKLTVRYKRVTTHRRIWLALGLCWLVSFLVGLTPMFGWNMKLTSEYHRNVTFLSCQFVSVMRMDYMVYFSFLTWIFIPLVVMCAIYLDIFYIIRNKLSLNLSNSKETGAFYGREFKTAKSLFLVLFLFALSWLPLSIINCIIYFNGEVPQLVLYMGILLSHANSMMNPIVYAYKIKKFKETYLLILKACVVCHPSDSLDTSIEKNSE
Nature of the assay: Agonist activity against adenosine 3 receptor subtype (CHO cells, forskolin-enhanced cAMP, SPAP reporter). As to conditions: EC50 ratio to NECA; transfected CHO cells, forskolin-enhanced cAMP reflected by SPAP. In a few lines: as §1

For assay [3], the target named is T3, Adenosine 1 receptor (Homo sapiens, UniProt P30542).
T3 construct: expressed in transfected cells; host or cells: Chinese hamster ovary (CHO) cells, co-transfected with a CRE-SPAP reporter
T3 sequence (P30542 1-326): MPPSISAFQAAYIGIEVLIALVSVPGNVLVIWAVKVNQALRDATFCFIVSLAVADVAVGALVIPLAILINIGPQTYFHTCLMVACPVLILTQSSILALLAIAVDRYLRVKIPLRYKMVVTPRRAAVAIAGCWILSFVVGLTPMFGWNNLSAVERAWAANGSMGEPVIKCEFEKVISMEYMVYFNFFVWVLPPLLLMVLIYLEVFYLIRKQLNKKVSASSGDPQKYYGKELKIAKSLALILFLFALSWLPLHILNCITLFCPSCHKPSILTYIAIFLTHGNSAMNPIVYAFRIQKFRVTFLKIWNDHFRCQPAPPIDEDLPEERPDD
Nature of the assay: Agonist activity against adenosine 1 receptor subtype (CHO cells, forskolin-enhanced cAMP, SPAP reporter). As to conditions: EC50 ratio to NECA; transfected CHO cells, forskolin-enhanced cAMP reflected by SPAP. An outline of the steps:
as §1

Counter-ions that a name gives are not always drawn.

T1 sequence (P29274 whole entry): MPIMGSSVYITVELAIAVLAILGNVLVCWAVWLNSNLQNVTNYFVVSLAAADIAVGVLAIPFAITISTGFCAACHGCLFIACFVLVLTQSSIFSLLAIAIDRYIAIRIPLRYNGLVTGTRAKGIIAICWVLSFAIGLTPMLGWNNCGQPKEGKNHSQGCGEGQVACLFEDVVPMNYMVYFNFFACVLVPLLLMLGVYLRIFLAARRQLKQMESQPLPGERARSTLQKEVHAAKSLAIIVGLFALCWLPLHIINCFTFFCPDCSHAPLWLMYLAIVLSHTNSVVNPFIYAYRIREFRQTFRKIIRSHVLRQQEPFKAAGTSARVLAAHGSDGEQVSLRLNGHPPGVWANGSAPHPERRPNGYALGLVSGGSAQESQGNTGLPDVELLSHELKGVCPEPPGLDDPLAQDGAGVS

For the molecule `CCc1cc([C@H]2O[C@@H](n3cnc4c(NC(CC)CC)nc(NC5CCCC5)nc43)[C@H](O)[C@@H]2O)on1.O=CO` [Example 46, (2R,3R,4S,5S)-2-[2-(Cyclopentylamino)-6-(1-ethyl-propylamino)-purin-9-yl]-5-(3-ethyl-isoxazol-5-yl)-tetrahydro-furan-3,4-diol formate], in assay [1], the “A2a (EC50 values as a ratio of that of NECA)” value is reported as 20.06. For the same molecule, the “A3 (EC50 values as a ratio of that of NECA)” value in assay [2] was greater than 518. Also, the “A1 (EC50 values as a ratio of that of NECA)” value in assay [3] turned out to be 148.72.

With `CCc1cc([C@H]2O[C@@H](n3cnc4c(NC(CC)CC)nc(NC5CCOCC5)nc43)[C@H](O)[C@@H]2O)on1.O=CO` [Example 48, (2R,3R,4S,5S)-2-[2-(4-tetrahydropyranyl-amino)-6-(1-ethyl-propylamino)-purin-9-yl]-5-(3-ethyl-isoxazol-5-yl)-tetrahydro-furan-3,4-diol formate], in assay [1], the “A2a (EC50 values as a ratio of that of NECA)” value worked out at 11.48. Besides, the “A3 (EC50 values as a ratio of that of NECA)” value in assay [2] is greater than 363. For the same molecule, the “A1 (EC50 values as a ratio of that of NECA)” value in assay [3] turned out to be 177.71.

For `CCc1cc(C2OC(n3cnc4c(NC(CC)CC)nc(NC5CCN(Cc6ccccc6)C5)nc43)C(O)C2O)on1` [Example 49, (2R,3R,4S,5S)-2-[2-(1-Benzyl-pyrrolidin-3S-1-ylamino)-6-(1-ethyl-propylamino)purin-9-yl]-5-(3-ethyl-isoxazol-5-yl)-tetrahydro-furan-3,4-diol formate], the “A2a (EC50 values as a ratio of that of NECA)” value in assay [1] was found to be 7.79. In addition, the “A3 (EC50 values as a ratio of that of NECA)” value in assay [2] was greater than 350. Besides, in assay [3], the “A1 (EC50 values as a ratio of that of NECA)” value came to 28.28.

Turning to `CCC(CC)Nc1nc(NCCc2cn(C)cn2)nc2c1ncn2C1OC(c2cc(C=NO)no2)C(O)C1O` (stereo not drawn) [Example 50, 5-(5R-{6-Ethyl-propylamino)-2-[2(1-methyl-1H-imidazol-4-yl)-ethylamino]-purin-9-yl}-3S,4R-dihydroxy-tetrahydro-furan-2S-yl)-isoxazole-3-carbaldehyde oxime diformate], the “A2a (EC50 values as a ratio of that of NECA)” value in assay [1] was determined as 7.26. In assay [2], the “A3 (EC50 values as a ratio of that of NECA)” value is on record as greater than 113. For the same molecule, the “A1 (EC50 values as a ratio of that of NECA)” value in assay [3] is on record as greater than 6188.

On to `CCc1cc(C2OC(n3cnc4c(NC(CO)Cc5ccccc5)nc(NCCN5CCOCC5)nc43)C(O)C2O)on1` [Example 51, (2S,3S,4R,5R)-2-(3-Ethyl-isoxazol-5-yl)-5-[6-(1S-hydroxymethyl-2-phenyl-ethylamino)-2-(2-morpholin-4-yl-ethylamino)-purin-9-yl]-tetrahydro-furan-3,4-diol diformate], for which the “A2a (EC50 values as a ratio of that of NECA)” value in assay [1] was 4.86. The “A3 (EC50 values as a ratio of that of NECA)” value in assay [2] was greater than 340. Moreover, in assay [3], the “A1 (EC50 values as a ratio of that of NECA)” value is on record as 22.53.

As to `CCc1cc(C2OC(n3cnc4c(NCc5ccccc5)nc(NCCc5ccccn5)nc43)C(O)C2O)on1.O=CO.O=CO` [Example 52, (2S,3S,4R,5R)-2-(3-Ethyl-isoxazol-5-yl)-5-[6-benzylamino-2-(2-pyridin-2-yl-ethylamino)-purin-yl]-tetrahydro-furan-3,4-diol diformate], the “A2a (EC50 values as a ratio of that of NECA)” value in assay [1] was found to be 21.63. Moreover, in assay [2], the “A3 (EC50 values as a ratio of that of NECA)” value was greater than 340. The “A1 (EC50 values as a ratio of that of NECA)” value in assay [3] is 1359.98.

Turning to `CCc1cc([C@H]2O[C@@H](n3cnc4c(NC(CC)CC)nc(NCCNc5ccccn5)nc43)[C@H](O)[C@@H]2O)on1.O=CO.O=CO` [Example 53, (2S,3S,4R,5R)-2-(3-Ethyl-isoxazol-5-yl)-5-{6-(1-ethyl-propylamino)-2-[2-(pyridin-2-ylamino)-ethylamino]-purin-9-yl}-tetrahydro-furan-3,4-diol diformate], the “A2a (EC50 values as a ratio of that of NECA)” value in assay [1] is recorded as 2.11. Moreover, the “A3 (EC50 values as a ratio of that of NECA)” value in assay [2] is greater than 229. Besides, the “A1 (EC50 values as a ratio of that of NECA)” value in assay [3] was found to be 128.9.

In the case of `CCC(CC)Nc1nc(NCCN2CCCCC2)nc2c1ncn2[C@@H]1O[C@H](c2cc(C(C)O)no2)[C@@H](O)[C@H]1O.O=CO.O=CO` (stereo partly drawn) [Example 54, (2R,3R,4S,5S)-2-[6-(1-Ethyl-propylamino)-2-(2-piperidin-1-yl-ethylamino)-purin-9-yl]-5-[3-(1-hydroxy-ethyl)-isoxazol-5-yl]-tetrahydro-furan-3,4-diol diformate], the “A2a (EC50 values as a ratio of that of NECA)” value in assay [1] stood at 0.066. Also, the “A3 (EC50 values as a ratio of that of NECA)” value in assay [2] is reported as greater than 350. Besides, the “A1 (EC50 values as a ratio of that of NECA)” value in assay [3] was 10.18.

In the case of `CCC(CC)Nc1nc(NCCN2CCCCC2)nc2c1ncn2C1OC(c2cc(C)no2)C(O)C1O.O=CO.O=CO` [Example 55, (2R,3R,4S,5S)-2-[6-(1-Ethyl-propylamino)-2-(2-piperidin-1-yl-ethylamino)-purin-9-yl]-5-(3-methyl-isoxazol-5-yl)-tetrahydro-furan-3,4-diol diformate], the “A2a (EC50 values as a ratio of that of NECA)” value in assay [1] is 0.175. Moreover, the “A3 (EC50 values as a ratio of that of NECA)” value in assay [2] was greater than 353. In addition, the “A1 (EC50 values as a ratio of that of NECA)” value in assay [3] was 155.3.

Regarding `CCCc1cc(C2OC(n3cnc4c(NC(CC)CC)nc(NCCN5CCCCC5)nc43)C(O)C2O)on1.O=CO.O=CO` [Example 56, (2R,3R,4S,5S)-2-[6-(1-Ethyl-propylamino)-2-(2-piperidin-yl-ethylamino)-purin-9-yl]-5-(3-propyl-isoxazol-5-yl)-tetrahydro-furan-3,4-diol diformate], the “A2a (EC50 values as a ratio of that of NECA)” value in assay [1] is 5.19. Also, the “A3 (EC50 values as a ratio of that of NECA)” value in assay [2] was greater than 525. Besides, the “A1 (EC50 values as a ratio of that of NECA)” value in assay [3] was 101.31.

Take `CCC(CC)Nc1nc(NCCN2CCCCC2)nc2c1ncn2C1OC(c2cc(CO)no2)C(O)C1O.O=CO.O=CO` [Example 57, (2R,3R,4S,5S)-2-[6-(1-Ethyl-propylamino)-2-(2-piperidin-1-yl-ethylamino)-purin-9-yl]-5-(3-hydroxymethyl-isoxazol-5-yl)-tetrahydro-furan-3,4-diol diformate]: in assay [1], the “A2a (EC50 values as a ratio of that of NECA)” value is 0.79. In addition, in assay [2], the “A3 (EC50 values as a ratio of that of NECA)” value is greater than 525. Moreover, in assay [3], the “A1 (EC50 values as a ratio of that of NECA)” value stood at 80.76.

On to `CCC(CC)Nc1nc(NCCc2cn(C)cn2)nc2c1ncn2[C@@H]1O[C@H](c2cc(C(C)O)no2)[C@@H](O)[C@H]1O.O=CO.O=CO` (stereo partly drawn) [Example 58, (2R,3R,4S,5S)-2-{6-(1-Ethyl-propylamino)-2-[2-(1-methyl-1H-imidazol-4-yl)-ethylamino]-purin-9-yl}-5-[3-(1-hydroxy-ethyl)-isoxazol-5-yl]-tetrahydro-furan-3,4-diol diformate], for which, in assay [1], the “A2a (EC50 values as a ratio of that of NECA)” value came out at 0.244. In addition, in assay [2], the “A3 (EC50 values as a ratio of that of NECA)” value was greater than 525. The “A1 (EC50 values as a ratio of that of NECA)” value in assay [3] was found to be 812.2.

Regarding `CCc1cc(C2OC(n3cnc4c(NC(CO)Cc5ccccc5)nc(NCCNc5ccccn5)nc43)C(O)C2O)on1` [Example 62, (2S,3S,4R,5R)-2-(3-Ethyl-isoxazol-5-yl)-5-{6-(1S-hydroxymethyl-2-phenyl-ethylamino)-2-[2-(pyridin-2-ylamino)-ethylamino]-purin-9-yl}-tetrahydro-furan-3,4-diol diformate], in assay [1], the “A2a (EC50 values as a ratio of that of NECA)” value was 1.03. Further, the “A3 (EC50 values as a ratio of that of NECA)” value in assay [2] is recorded as greater than 303. Moreover, the “A1 (EC50 values as a ratio of that of NECA)” value in assay [3] is on record as 21.37.

These data come from patent US6762170B1, “2-(purin-9-yl)-tetrahydrofuran-3,4-diol derivatives” (SmithKlineBeecham Corporation, priority 1998, dated 2004).
